Like-named read-outs stand apart in the source and are kept apart here. Starred links: 1 amine or outer side, 2 acyl side, 3 side chain; linkers in the order of their positions; H or OH if unused. Positions of bridges follow the written chain, without caps; N, C: chain ends. Non-standard residues stand in square brackets, D forms with d. Residues, ends and D or L forms follow the SMILES beside them. *: point of attachment. Bip(4'-NHCO-C6H4-4-CH2COOH) = N[C@@H](Cc1ccc(-c2ccc(NC(=O)c3ccc(CC(=O)O)cc3)cc2)cc1)C(=O)O; X5 = Cn1nc(C(=O)Nc2ccc(-c3ccc(C[C@H](N[*:1])C(=O)[*:2])cc3)cc2)c2ccccc21; Bip(4'-NHBz) = N[C@@H](Cc1ccc(-c2ccc(NC(=O)c3ccccc3)cc2)cc1)C(=O)O; Bip(4'-NH) = O=C([C@H](Cc1ccc(-c2ccc(N[*:3])cc2)cc1)N[*:1])[*:2]; dArg(ω-(3-HO-benzyl)) = N=C(NCCC[C@@H](N)C(=O)O)NCc1cccc(O)c1; Indazole3carbonyl(1-CH2COOH) = O=C(O)Cn1nc(C(=O)*)c2ccccc21; Bip(4'-COOH) = N[C@@H](Cc1ccc(-c2ccc(C(=O)O)cc2)cc1)C(=O)O; Bip(4'-NHAc) = CC(=O)Nc1ccc(-c2ccc(C[C@H](N)C(=O)O)cc2)cc1; Indole3carbonyl(1-CH2COOH) = O=C(O)Cn1cc(C(=O)*)c2ccccc21; X80 = N=C(NCCC[C@@H](N[*:1])C(=O)[*:2])NCc1ccc2c(c1)OCO2; X19 = N=C(NCCC[C@@H](N[*:1])C(=O)[*:2])NCc1ccc2ccccc2c1; Pro(cis-4-Ph) = O=C(O)[C@@H]1C[C@H](c2ccccc2)CN1; Ala(imidazol-2-yl) = N[C@@H](Cc1ncc[nH]1)C(=O)O; Ala(morpholin-4-yl) = N[C@@H](CN1CCOCC1)C(=O)O; Phe(3-CONH2) = NC(=O)c1cccc(C[C@H](N)C(=O)O)c1; Bip = N[C@@H](Cc1ccc(-c2ccccc2)cc1)C(=O)O; Phe(2-Me) = Cc1ccccc1C[C@H](N)C(=O)O; Val(3-OH) = CC(C)(O)[C@H](N)C(=O)O; X57 = Cn1c(C(=O)*)cc2c(Cl)cccc21; 2Pal = N[C@@H](Cc1ccccn1)C(=O)O; Tic = O=C(O)[C@@H]1Cc2ccccc2CN1; Cha = N[C@@H](CC1CCCCC1)C(=O)O; X62 = COC(=O)Cc1cccc(C(=O)*)c1; d(αMeP) = C[C@]1(C(=O)O)CCCN1; Tle = CC(C)(C)[C@H](N)C(=O)O; Aze = O=C(O)[C@@H]1CCN1; Sar = CNCC(=O)O
Target: TNFα (Homo sapiens, UniProt P01375)
Assay: TNF-Induced HEK-Blue Assay
Format: cell-based
[1] = HEK-Blue-CD40L cells, NF-kB-driven secreted alkaline phosphatase reporter, TNFα 0.5 ng/ml, 18 h, read-out: TNF induced HEK-Blue assay IC50 value

Chain of TNFα (P01375 77-233 limits assumed): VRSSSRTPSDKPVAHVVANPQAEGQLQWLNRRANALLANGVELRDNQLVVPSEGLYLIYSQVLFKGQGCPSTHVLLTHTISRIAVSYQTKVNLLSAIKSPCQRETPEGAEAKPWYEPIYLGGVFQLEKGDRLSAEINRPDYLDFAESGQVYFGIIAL

Row | SMILES | IC50 [1] [nM] | IC50 [nM]
1 | CC[C@H](C)[C@@H]1NC(=O)[C@@H](CCCNC(=N)NCc2cccc(O)c2)NC(=O)[C@H](CC(=O)O)NC(=O)[C@H](Cc2cnc[nH]2)NC(=O)CN(C)C(=O)[C@H](Cc2ccc(-c3ccc(NC(=O)c4ccc(CC(=O)O)cc4)cc3)cc2)NC(=O)[C@H](Cc2ccc(-c3ccc(C(=O)O)cc3)cc2)NC(=O)[C@H](CC2CCCCC2)NC(=O)CSC[C@@H](C(=O)NCC(N)=O)NC(=O)[C@H](CC(C)C)NC(=O)[C@H](Cc2ncc[nH]2)NC(=O)[C@H](C(C)C)NC(=O)[C@@H]2Cc3ccccc3CN2C1=O [Example 563] ({CH2CO}-[Cha][Bip(4'-COOH)][Bip(4'-NHCO-C6H4-4-CH2COOH)][Sar]HD[dArg(ω-(3-HO-benzyl))]I[Tic]V[Ala(imidazol-2-yl)]LCG-NH2; thioether N-13) | < 50 | 
2 | CC(C)C[C@@H]1NC(=O)[C@H](CCCNC(=N)N)NC(=O)[C@H](C(C)C)NC(=O)[C@@H]2CCCN2C(=O)[C@H](C(C)C)NC(=O)[C@@H](CCCNC(=N)NCc2ccc3ccccc3c2)NC(=O)[C@H](CC(=O)O)NC(=O)[C@@H]2CCCN2C(=O)CN(C)C(=O)[C@H](Cc2ccc(-c3ccc(NC(=O)c4nn(C)c5ccccc45)cc3)cc2)NC(=O)[C@H](Cc2ccc(-c3ccccc3)cc2)NC(=O)[C@H](CN2CCOCC2)NC(=O)CSC[C@@H](C(=O)NCC(N)=O)NC1=O [Example 472] ({CH2CO}-[Ala(morpholin-4-yl)][Bip][X5][Sar]PD[X19]VPVRLCG-NH2; thioether N-13) | 50 to 200 | 
3 | CC(C)C[C@@H]1NC(=O)[C@H](CCCNC(=N)N)NC(=O)[C@H](C(C)C)NC(=O)[C@@H]2CCCN2C(=O)[C@H](C(C)C)NC(=O)[C@@H](CCCNC(=N)N)NC(=O)[C@H](CC(=O)O)NC(=O)[C@@H]2CCCN2C(=O)CN(C)C(=O)[C@H](Cc2ccc(-c3ccc(NC(=O)c4nn(CC(=O)O)c5ccccc45)cc3)cc2)NC(=O)[C@H](Cc2ccc(-c3ccccc3)cc2)NC(=O)[C@H](CN2CCOCC2)NC(=O)CSC[C@@H](C(=O)NCC(N)=O)NC1=O [Example 333] ({CH2CO}-[Ala(morpholin-4-yl)][Bip][Bip(4'-NH)](Indazole3carbonyl(1-CH2COOH))[Sar]PD[dR]VPVRLCG-NH2; thioether N-13) |  | < 50
4 | CC(C)C[C@@H]1NC(=O)[C@H](Cc2ncc[nH]2)NC(=O)[C@H](C(C)C)NC(=O)[C@@H]2CCCN2C(=O)[C@H](C(C)C)NC(=O)[C@@H](CCCNC(=N)NCc2cccc(O)c2)NC(=O)[C@H](CC(=O)O)NC(=O)[C@H](Cc2ccccn2)NC(=O)CN(C)C(=O)[C@H](Cc2ccc(-c3ccc(NC(=O)c4cn(CC(=O)O)c5ccccc45)cc3)cc2)NC(=O)[C@H](Cc2ccc(-c3ccc(C(=O)O)cc3)cc2)NC(=O)[C@H](CC2CCCCC2)NC(=O)CSC[C@@H](C(=O)NCC(N)=O)NC1=O [Example 552] ({CH2CO}-[Cha][Bip(4'-COOH)][Bip(4'-NH)](Indole3carbonyl(1-CH2COOH))[Sar][2Pal]D[dArg(ω-(3-HO-benzyl))]VPV[Ala(imidazol-2-yl)]LCG-NH2; thioether N-13) |  | 50 to 200
5 | CC[C@H](C)[C@@H]1NC(=O)[C@@H]2CCCN2C(=O)[C@H]([C@@H](C)CC)NC(=O)[C@@H](CCCNC(=N)N)NC(=O)[C@H](CC(=O)O)NC(=O)[C@H](Cc2ccccc2)NC(=O)CN(C)C(=O)[C@H](Cc2ccc(-c3ccc(NC(=O)c4ccccc4)cc3)cc2)NC(=O)[C@H](Cc2ccc(-c3ccc(C(=O)O)cc3)cc2)NC(=O)[C@H](C(C)(C)C)NC(=O)CSC[C@@H](C(=O)NCC(N)=O)NC(=O)[C@H](CC(C)C)NC(=O)[C@H](Cc2cnc[nH]2)NC1=O [Example 350] ({CH2CO}-[Tle][Bip(4'-COOH)][Bip(4'-NHBz)][Sar]FD[dR]IPIHLCG-NH2; thioether N-13) |  | < 50
6 | CC[C@H](C)[C@@H]1NC(=O)[C@@H](CCCNC(=N)N)NC(=O)[C@H](CC(=O)O)NC(=O)[C@H](Cc2cnc[nH]2)NC(=O)CN(C)C(=O)[C@H](Cc2ccc(-c3ccc(NC(=O)c4cccc(CC(=O)OC)c4)cc3)cc2)NC(=O)[C@H](Cc2ccc(-c3ccccc3)cc2)NC(=O)[C@H](C(C)(C)C)NC(=O)CSC[C@@H](C(=O)NCC(N)=O)NC(=O)[C@H](CC(C)C)NC(=O)[C@H](Cc2c[nH]cn2)NC(=O)[C@H](C(C)C)NC(=O)[C@@H]2CCCN2C1=O [Example 502] ({CH2CO}-[Tle][Bip][Bip(4'-NH)](X62)[Sar]HD[dR]IPVHLCG-NH2; thioether N-13) |  | < 50
7 | CC(C)C[C@@H]1NC(=O)[C@H](CCCNC(=N)N)NC(=O)[C@H](C(C)C)NC(=O)[C@@H]2CCCN2C(=O)[C@H](C(C)C)NC(=O)[C@@H](CCCNC(=N)NCc2ccc3c(c2)OCO3)NC(=O)[C@H](CC(=O)O)NC(=O)[C@@H]2CCCN2C(=O)CN(C)C(=O)[C@H](Cc2ccc(-c3ccc(NC(=O)c4nn(CC(=O)O)c5ccccc45)cc3)cc2)NC(=O)[C@H](Cc2ccc(-c3ccccc3)cc2)NC(=O)[C@H](CN2CCOCC2)NC(=O)CSC[C@@H](C(=O)NCC(N)=O)NC1=O [Example 509] ({CH2CO}-[Ala(morpholin-4-yl)][Bip][Bip(4'-NH)](Indazole3carbonyl(1-CH2COOH))[Sar]PD[X80]VPVRLCG-NH2; thioether N-13) |  | < 50

More lines, main results first:

Row | IC50 [1] [nM] | SMILES | IC50 [nM]
8 | 200 to 2000 | CC(C)C[C@@H]1NC(=O)[C@H](Cc2ccc(O)cc2)NC(=O)[C@H](C(C)C)NC(=O)[C@@H]2CCCN2C(=O)[C@H](C(C)C)NC(=O)[C@H](CCCNC(=N)N)NC(=O)[C@H](CC(=O)O)NC(=O)[C@H](Cc2ccc(O)cc2)NC(=O)CN(C)C(=O)[C@H](Cc2ccc(-c3ccccc3)cc2)NC(=O)[C@H](Cc2ccc(-c3ccccc3)cc2)NC(=O)[C@H](CN2CCOCC2)NC(=O)CSC[C@@H](C(=O)NCC(N)=O)NC1=O [Example 48] ({CH2CO}-[Ala(morpholin-4-yl)][Bip][Bip][Sar]YDRVPVYLCG-NH2; thioether N-13) | 
9 | < 50 | CC(=O)Nc1ccc(-c2ccc(C[C@@H]3NC(=O)[C@H](Cc4ccc(-c5ccc(C(=O)O)cc5)cc4)NC(=O)[C@H](CC4CCCCC4)NC(=O)CSC[C@@H](C(=O)NCC(N)=O)NC(=O)[C@H](CC(C)C)NC(=O)[C@H](Cc4cccc(C(N)=O)c4)NC(=O)[C@H](C(C)C)NC(=O)[C@@H]4CCCN4C(=O)[C@H](C(C)C)NC(=O)[C@@H](CCCNC(=N)N)NC(=O)[C@H](CC(=O)O)NC(=O)[C@H](Cc4ccccn4)NC(=O)CN(C)C3=O)cc2)cc1 [Example 251] ({CH2CO}-[Cha][Bip(4'-COOH)][Bip(4'-NHAc)][Sar][2Pal]D[dR]VPV[Phe(3-CONH2)]LCG-NH2; thioether N-13) | 
10 | 50 to 200 | CC(C)C[C@@H]1NC(=O)[C@H](CCCNC(=N)N)NC(=O)[C@H](C(C)C)NC(=O)[C@@H]2CCN2C(=O)[C@H](C(C)C)NC(=O)[C@H](CCCNC(=N)N)NC(=O)[C@H](CC(=O)O)NC(=O)[C@@H]2CCCN2C(=O)CN(C)C(=O)[C@H](Cc2ccc(-c3ccccc3)cc2)NC(=O)[C@H](Cc2ccc(-c3ccccc3)cc2)NC(=O)[C@H](CN2CCOCC2)NC(=O)CSC[C@@H](C(=O)NCC(N)=O)NC1=O [Example 72] ({CH2CO}-[Ala(morpholin-4-yl)][Bip][Bip][Sar]PDRV[Aze]VRLCG-NH2; thioether N-13) | 
11 | 50 to 200 | CC[C@H](C)[C@@H]1NC(=O)[C@@H](CCCNC(=N)N)NC(=O)[C@H](CC(=O)O)NC(=O)[C@H](Cc2cnc[nH]2)NC(=O)CN(C)C(=O)[C@H](Cc2ccc(-c3ccc(NC(=O)c4cc5c(Cl)cccc5n4C)cc3)cc2)NC(=O)[C@H](Cc2ccc(-c3ccccc3)cc2)NC(=O)[C@H](CC2CCCCC2)NC(=O)CSC[C@@H](C(=O)NCC(N)=O)NC(=O)[C@H](CC(C)C)NC(=O)[C@H](Cc2cnc[nH]2)NC(=O)[C@H](C(C)C)NC(=O)[C@@H]2CCCN2C1=O [Example 319] ({CH2CO}-[Cha][Bip][Bip(4'-NH)](X57)[Sar]HD[dR]IPVHLCG-NH2; thioether N-13) | 
12 | 50 to 200 | CC(C)C[C@@H]1NC(=O)[C@H](CCCNC(=N)N)NC(=O)[C@H](C(C)C)NC(=O)[C@@H]2CCCN2C(=O)[C@H](C(C)C)NC(=O)[C@H](CCCNC(=N)N)NC(=O)[C@H](CC(=O)O)NC(=O)[C@@H]2C[C@H](c3ccccc3)CN2C(=O)CN(C)C(=O)[C@H](Cc2ccc(-c3ccccc3)cc2)NC(=O)[C@H](Cc2ccc(-c3ccccc3)cc2)NC(=O)[C@H](CN2CCOCC2)NC(=O)CSC[C@@H](C(=O)NCC(N)=O)NC1=O [Example 96] ({CH2CO}-[Ala(morpholin-4-yl)][Bip][Bip][Sar][Pro(cis-4-Ph)]DRVPVRLCG-NH2; thioether N-13) | 
13 | < 50 | CC(=O)Nc1ccc(-c2ccc(C[C@@H]3NC(=O)[C@H](Cc4ccc(-c5ccc(C(=O)O)cc5)cc4)NC(=O)[C@H](CN4CCOCC4)NC(=O)CSC[C@@H](C(=O)NCC(N)=O)NC(=O)[C@H](CC(C)C)NC(=O)[C@H](Cc4ccccc4C)NC(=O)[C@H](C(C)C)NC(=O)[C@@H]4CCCN4C(=O)[C@H](C(C)C)NC(=O)[C@@H](CCCNC(=N)N)NC(=O)[C@H](CC(=O)O)NC(=O)[C@H](Cc4ccccn4)NC(=O)CN(C)C3=O)cc2)cc1 [Example 199] ({CH2CO}-[Ala(morpholin-4-yl)][Bip(4'-COOH)][Bip(4'-NHAc)][Sar][2Pal]D[dR]VPV[Phe(2-Me)]LCG-NH2; thioether N-13) | 
14 | 200 to 2000 | CC(C)C[C@@H]1NC(=O)[C@H](CCCNC(=N)N)NC(=O)[C@H](C(C)C)NC(=O)[C@@H]2CCCN2C(=O)[C@H](C(C)C)NC(=O)[C@@H](CCCNC(=N)N)NC(=O)[C@H](CC(=O)O)NC(=O)[C@@]2(C)CCCN2C(=O)CN(C)C(=O)[C@H](Cc2ccc(-c3ccccc3)cc2)NC(=O)[C@H](Cc2ccc(-c3ccccc3)cc2)NC(=O)[C@H](CN2CCOCC2)NC(=O)CSC[C@@H](C(=O)NCC(N)=O)NC1=O [Example 103] ({CH2CO}-[Ala(morpholin-4-yl)][Bip][Bip][Sar][d(αMeP)]D[dR]VPVRLCG-NH2; thioether N-13) | 
15 | 50 to 200 | CC(C)C[C@@H]1NC(=O)[C@H](CCCNC(=N)N)NC(=O)[C@H](C(C)C)NC(=O)[C@@H]2CCCN2C(=O)[C@H](C(C)C)NC(=O)[C@H](CCCNC(=N)N)NC(=O)[C@H](CC(=O)O)NC(=O)[C@H](Cc2ccc(O)cc2)NC(=O)CN(C)C(=O)[C@H](Cc2ccc(-c3ccccc3)cc2)NC(=O)[C@H](Cc2ccc(-c3ccccc3)cc2)NC(=O)[C@H](C(C)(C)O)NC(=O)CSC[C@@H](C(=O)NCC(N)=O)NC1=O [Example 65] ({CH2CO}-[Val(3-OH)][Bip][Bip][Sar]YDRVPVRLCG-NH2; thioether N-13) | 
